Data on eleven molecules can be found in ChEMBL document CHEMBL1138991, “(+)-12alpha-Hydroxysophocarpine, a new quinolizidine alkaloid and related anti-HBV alkaloids from Sophora flavescens” (2006).

The source made the active and inactive calls. The calls are words filed in the database; no cut-off is given here. A value given as a limit tells only on which side of the number the result lay.

Assay [1] deals with Hepatitis B virus. Nature of the assay: Inhibition of HBeAg release against HBV in HepG2 2.2.15 cell line at 0.2 umol/mL. The format is functional. Further details: scale not given: the % may be the effect or the level left.
Assay [2] concerns HepG2. Nature of the assay: Cytotoxicity against HepG2 2.2.15 cell line at 0.4 umol/mL by MTT assay. It is filed as functional, Homo sapiens. For orientation: Tetrazolium assays rely on reduction of a dye to a coloured formazan, in cell work by metabolically active cells.
Assay [3] has as its system Hepatitis B virus. Nature of the assay: Inhibition of HBeAg release against HBV in HepG2 2.2.15 cell line at 0.1 umol/mL. It is filed as functional. Further details: scale not given: the % may be the effect or the level left.
Assay [4] relates to Hepatitis B virus. Nature of the assay: Inhibition of HBsAg release against HBV in HepG2 2.2.15 cell line at 0.2 umol/mL. The format is functional. Also on record: scale not given: the % may be the effect or the level left.
Assay [5] concerns Hepatitis B virus. Nature of the assay: Inhibition of HBsAg release against HBV in HepG2 2.2.15 cell line at 0.1 umol/mL. It is filed as functional. Also on record: scale not given: the % may be the effect or the level left.
Assay [6] deals with HepG2. Briefly: Cytotoxicity against HepG2 2.2.15 cell line at 0.8 umol/mL by MTT assay. The format is functional, cell-based. To be noted: Homo sapiens.
In assay [7] the test system is Hepatitis B virus. Nature of the assay: Inhibition of HBsAg release against HBV in HepG2 2.2.15 cell line at 0.4 umol/mL. It is filed as functional. Further details: scale not given: the % may be the effect or the level left.
The subject of assay [8] is Hepatitis B virus. Nature of the assay: Inhibition of HBeAg release against HBV in HepG2 2.2.15 cell line at 0.4 umol/mL. It is filed as functional. Further details: scale not given: the % may be the effect or the level left.
The subject of assay [9] is Hepatitis B virus. Nature of the assay: Inhibition of HBsAg release against HBV in HepG2 2.2.15 cell line at 0.8 umol/mL. The format is functional. Further details: scale not given: the % may be the effect or the level left.
For assay [10], the system named is Hepatitis B virus. Nature of the assay: Inhibition of HBeAg release against HBV in HepG2 2.2.15 cell line at 0.8 umol/mL. The format is functional. Also on record: scale not given: the % may be the effect or the level left.
In assay [11] the test system is HepG2. Briefly: Cytotoxicity against HepG2 2.2.15 cell line at 1.6 umol/mL by MTT assay. It is filed as functional, cell-based. To be noted: Homo sapiens.

Regarding `O=C1CCC[C@@H]2[C@H]3CCCN4CCC[C@@H](CN12)[C@H]34`, the Activity is recorded as 10.8% in the assay with Hepatitis B virus [1]; “>=25%” in the assay with HepG2 [2]; 9.6% in the assay on Hepatitis B virus [3]; 27.7% in the assay with Hepatitis B virus [4]; 25.1% with Hepatitis B virus [5].
For the molecule `O=C1CCC[C@@H]2[C@H]3C[C@H](O)CN4CCC[C@@H](CN12)[C@@H]34`, the Activity with Hepatitis B virus [1] was 19.5%; in the assay on HepG2 [2] it was “>=25%”; with Hepatitis B virus [3], 13.3%; with Hepatitis B virus [4], 31.6%; in the assay on Hepatitis B virus [5] it was 18.1%.
Taken in the same sequence, the figures for `O=C1CCC[C@@H]2[C@H]3CCCN4CCC[C@@H](CN12)[C@@H]34` [MATRINE] were 2.7%, “>=25%”, 0%, 30.9% and 8.9%.
On to `O=c1cccc2n1C[C@H]1C[C@H]2CN2CCCC[C@H]12`, for which the Activity with Hepatitis B virus [1] is on record as 0%; with Hepatitis B virus [7] it was 33.1%; with Hepatitis B virus [4] it was 19.8%; with Hepatitis B virus [8], 0%. For the same molecule, the result in the assay with HepG2 [6] was Active.
As for `O=C1C=CC[C@@H]2[C@H]3CCC[N+]4([O-])CCC[C@@H](CN12)[C@@H]34` (some centres undefined) [OXYSOPHOCARPINE], the Activity with Hepatitis B virus [1] is reported as 24.6%; in the assay on HepG2 [2], “>=25%”; in the assay on Hepatitis B virus [3], 22.4%; with Hepatitis B virus [4] it was 48.3%; in the assay with Hepatitis B virus [5] it was 39.9%.
The corresponding values for `O=C1CCC[C@@H]2[C@H]3CCC[N+]4([O-])CCC[C@@H](CN12)[C@@H]34` (some centres undefined) [OXYMATRINE] are 17.1%, “>=25%”, 15.8%, 39.7% and 35.3%.
The corresponding values for `O=C1C=C[C@H](O)[C@@H]2[C@H]3CCCN4CCC[C@@H](CN12)[C@@H]34` are 4.6%, “>=25%”, 0%, 40.8% and 28%.
The corresponding values for `O=C1C=CC[C@@H]2[C@H]3CCCN4CCC[C@@H](CN12)[C@@H]34` [SOPHOCARPINE] are 34.6%, “>=25%”, 31.4%, 57.2% and 21.6%.
As for `O=C1C=CC[C@@H]2[C@H]3C[C@H](O)CN4CCC[C@@H](CN12)[C@@H]34`, the Activity in the assay with Hepatitis B virus [1] was 5.7%; with HepG2 [2], “>=25%”; in the assay with Hepatitis B virus [3] it was 0%; in the assay on Hepatitis B virus [4] it was 24.5%; in the assay with Hepatitis B virus [5] it was 0%.
Regarding `O=C1C=CC[C@@H]2[C@H]3CCCN4CCC[C@H](CN12)[C@@H]34`, the Activity in the assay on Hepatitis B virus [9] was 79.3%; in the assay on Hepatitis B virus [1] it was 6.8%; in the assay with Hepatitis B virus [10] it was 27.6%; with Hepatitis B virus [3] it was 0%; in the assay on Hepatitis B virus [7], 78.2%; in the assay on Hepatitis B virus [4], 63.4%. Also, the Activity stood at 17.9% in the assay on Hepatitis B virus [5] and 22.4% in the assay with Hepatitis B virus [8]. Besides, in the assay on HepG2 [11], the result was Active.
For the molecule `O=C1CC=C[C@@H]2[C@H]3CCCN4CCC[C@@H](CN12)[C@@H]34`, the Activity is listed as 25.4% in the assay on Hepatitis B virus [1]; “>=25%” with HepG2 [2]; 22.6% in the assay with Hepatitis B virus [3]; 52.6% with Hepatitis B virus [4]; 25.1% in the assay with Hepatitis B virus [5].
